Residues, ends and D or L forms follow the SMILES beside them. *: point of attachment. Boc = CC(C)(C)OC(=O)*
SMILES	melting point
Nc1ccc(OCCCCOc2ccc(N)cc2[N+](=O)[O-])c([N+](=O)[O-])c1	194 to 196 °C
CN(C(=O)COc1nc2c(F)cccc2s1)c1ccccc1	94 °C
NCc1ccc(-n2c(-c3cccnc3N)nc3ccc(-c4cn[nH]c4)nc32)cc1	264 to 269 °C
COC(=O)c1ccc(NC(=O)c2sc3ccc(OC)cc3c2OC(C)C)cc1O	158 to 160 °C
COc1ccc(C(=O)c2ccc(Cl)c(S(N)(=O)=O)c2)cc1	156 to 158 °C
Cn1c(C(F)(F)F)cc(=O)n(-c2c(O)cc(Cl)cc2F)c1=O	143 to 144 °C
NS(=O)(=O)c1ccc(-n2nc(CCCNC(=O)Nc3ccc(OC(F)(F)F)cc3)cc2-c2ccccc2)cc1	206 to 207 °C
NNc1nnc(Cl)cc1C(=O)O	198 to 201 °C
CCCCN1C(=O)NC(Cc2ccc(C=O)cc2)C1=O (stereo not drawn)	160 °C
Cc1ccc2ncc(C(=O)NC3CCCC3)c(=O)n2c1	162 to 164 °C
Cc1[nH]cnc1CON1C(=O)c2ccccc2C1=O	155 to 156 °C
COC(=O)CCC(=O)c1cc(OC)ccc1OCC1CO1 (stereo not drawn)	50 to 51.5 °C
CCOC(=O)C(CC(=O)c1ccccc1C)(NC(C)=O)C(=O)OCC	146 to 147 °C
N#CC(C(=O)Nc1ccccc1)C(=O)c1nn(-c2ccccc2)c2c1COc1ccccc1-2 (stereo not drawn)	280 to 282 °C
COC(=O)C(Sc1nnnn1-c1ccccc1)N1C(=O)c2ccccc2S1(=O)=O (stereo not drawn)	160 to 162 °C
CC1(C)C(Br)C(=O)C1CC(Cl)(Cl)Cl (stereo not drawn)	56 °C
CCCc1nc2c(N)nc3cccnc3c2n1CCCCN(OC)C(C)=O	155 to 156 °C
OC1CSC(Oc2cccc(-c3cncnc3)c2)C(O)C1O (stereo not drawn)	241 °C
CC(C)c1cc(O)cc(C(C)C)c1NC(=O)CN1CCN(CCSc2nc3ccccc3[nH]2)CC1	241 to 242 °C
CCCOc1ccccc1C(=O)Nc1cc(SC)ccc1C(N)=O	178 to 181 °C
CCCNC1=Nc2cccnc2N(CC)c2ncccc21	114 to 116 °C
Cc1c(C)c(O)c(CC[C@](C)(O)CO)c(C)c1O	124 to 132 °C
CN1C(=O)CCCC1(O)C=Cc1ccccc1 (stereo not drawn)	108 to 112 °C
CC1(C)Oc2c(Cl)cc(Cl)cc2[C@@H](Br)[C@@H]1O (relative stereo)	46 °C
COc1ccc(-c2c(S(C)(=O)=O)ccc(C(=O)c3cnn(C(C)(C)C)c3OC(C)=O)c2C)cc1	160 to 163 °C
Oc1ccc(N2CCN(Cc3nc4ccccc4[nH]3)CC2)cc1	206 to 209 °C

SMILES	melting point
Cc1cccc(C)c1N(CC(=O)N(C)C)C(=O)CCl	74 to 76 °C
CCC(=O)N1CCC(NC(=O)Nc2ccc(Cl)cc2)CC1	225 to 226 °C
CC(C)(C)CC(C)(C)Nc1cc(Cl)ccc1[N+](=O)[O-]	108 °C
N#Cc1ccc(N(Cc2ccc(O)cc2)n2cnnc2)cc1	228 to 230 °C
COc1ccc(C(=O)O)cc1OC1CC=CC1	171 to 173 °C
COc1cccc2c(=O)c3c(Cl)ccc([N+](=O)[O-])c3[nH]c12	315 to 320 °C
CS(=O)(=O)Nc1ccc(C(=O)NCCN2CCc3ccsc3C2c2ccccc2)cc1 (stereo not drawn)	185 to 187 °C
CN1CCN(Cc2ccc(-c3cccc(-c4ccnc5c(C(=O)c6cccs6)cnn45)c3)cc2)CC1	199 to 202 °C
O=C1Nc2ccncc2Oc2ccccc21	253 to 254 °C
COc1ccc2c(c1)-c1c(OC)ccc3c1C(C2=O)N(C)CC3 (stereo not drawn)	162 to 164 °C
CCS(=O)(=O)Oc1ccc(C(C)(C)C)cc1C(C)(C)C	76 °C
O=[N+]([O-])c1ccc(N(CCO)CCO)cc1F	99 to 101 °C
CC(C)(C)OC(=O)N1COC(=O)[C@@H]1Cc1ccccc1	84 to 86 °C
Cc1csc(-c2ccc(C3=NNC(=O)CC3)cc2)n1	266 to 267 °C
CCc1cc(NCc2ccc(-c3ccccc3C#N)cc2)n2nccc2n1	230 to 233 °C
CCOC(=S)c1cccc2nnsc12	114 to 115 °C
ON=C(Cl)c1ccc(F)cc1	74.5 to 75 °C
CC(=O)Oc1cc2ccc(S(=O)(=O)Cl)cc2cc1OC(C)=O	158 to 167 °C
CO[C@]1(c2ncc(S(=O)(=O)c3ccc(/C(C)=N/O)cc3)s2)CCO[C@@H]1C (racemic)	139 to 141 °C
COc1cc(COc2nn(CCO)cc2C=O)ccc1OCc1nc(-c2ccco2)oc1C	149 to 150 °C
O=C(O)COc1cccc(C(O)C(c2ccccc2)C2SCCCS2)c1 (stereo not drawn)	99 to 101 °C
Cc1nc2ccccc2n2c(-c3cc(OCC(F)c4ccccn4)ccc3Cl)nnc12 (stereo not drawn)	155 to 157 °C
Cc1ccc(Oc2ccc(-c3ccccc3)cc2)cc1	97 to 99 °C
CCOC(=O)N1CCC(NC(=O)c2ccccc2)C12CCCCC2 (stereo not drawn)	132 to 133 °C
CC(C)C(=O)O[C@H]1[C@H](C)OC(=O)[C@@H](NC(=O)OC(C)(C)C)COC(=O)[C@@H]1CSc1ccccn1	54 to 58 °C
CC(=O)O[C@@H]1[C@H](OC(C)=O)[C@@H](C)O[C@H]1n1c(Br)nc2c(Br)c(Cl)c(Cl)cc21	152 to 154 °C

SMILES	melting point
CCc1ccccc1NC=C1C(=O)N(c2ccc(N(S(C)(=O)=O)S(C)(=O)=O)cc2)N=C1C	268 °C
CC(=O)OCC1OC(n2cnc3c(Cl)nc(N)nc32)C(OC(C)=O)C1OC(C)=O (stereo not drawn)	58 to 60 °C
O=C(NCc1cccnc1)c1ccc2n1Cc1ccccc1N(C(=O)c1ccc3c(c1)Cc1ccccc1-3)C2	116 to 119 °C
Cc1oc(-c2ccccc2)nc1COc1ccc([N+](=O)[O-])cn1	142 to 143 °C
CCC(C)n1ncn(-c2ccc(N3CCN(c4ccc(OCC(O)(Cn5cncn5)c5ccc(Cl)cc5Cl)cc4)CC3)nc2)c1=O (stereo not drawn)	84 to 87 °C
COc1ccc2c(c1O)NC(O)C1CCCN1C2=O (stereo not drawn)	152 to 155 °C
Oc1ccc(Oc2ncc(C(F)(F)F)cc2Cl)cc1	70 to 72 °C
CC(C)(C)C(=O)OCOC(=O)C1CCc2c(c3ccccc3n2C(=O)c2ccccc2)C1 (stereo not drawn)	75 to 77 °C
COc1nc(OC)nc(Oc2cccc3c2C(=S)OC3C)n1 (stereo not drawn)	177 to 178 °C
CCC[C@@H](C)C(C(=O)O)C(=O)O	95 °C
CCOCCN(C(=O)N(CCCl)N=O)C1(O)C(CO)OC(OC2CCCCC2)C1O (stereo not drawn)	62 to 64 °C
CCOC(=O)c1ncoc1-c1cnc(Cl)c(Cl)c1	95 to 98 °C
O=C(NC1CCCCC1)Oc1ccc(Oc2ccccc2)cc1	166 to 168 °C
CCOC(=O)C1=C(C)NN=C(CC)C1c1cccc([N+](=O)[O-])c1 (stereo not drawn)	124 °C
COC(=O)c1cc(S(=O)(=O)N=CN(C)C)ccc1Cl	140 to 141 °C
COC(=O)c1ccc2c(c1)COc1ccc(/C=C/c3ccc4c(n3)CCCC4)cc1C2SCCC(=O)O (stereo not drawn)	121 to 123 °C
O=C(NCCO)NCCCCC1CCSS1 (stereo not drawn)	50 to 65 °C
Cc1cc(C)c2c(c1OCC(=O)O)Cc1sc(SCCC(c3ccccc3)c3ccccc3)nc1-2	156 to 158 °C
COC(=O)c1[nH]c2c(C)ccc(C)c2c1-c1ccccc1	143 to 145 °C
CC(C)(C)OC(=O)N1CCC(C=C(Br)Br)CC1	82.3 to 83.9 °C
CC(=O)NC1=C(O)CC(C(=O)N(C)C)CC1=O (stereo not drawn)	162 to 164 °C
CC(C)(C)OC(=O)N1CCC(c2ccc(N3C[C@H](CO)OC3=O)cc2F)CC1	120 to 122 °C
ClCc1cccc2cc(Br)ccc12	73 to 76 °C
CC(CN1CCC(Nn2cccc2)CC1)c1ccccc1 (stereo not drawn)	72 to 74 °C
CC(=O)Nc1c([N+](=O)[O-])c(Br)nn1-c1c(Cl)cc(C(F)(F)F)cc1Cl	179 to 180 °C
CCCCCCc1c(C(C)C)nc(C(C)C)c(CO)c1-c1ccccc1	71 to 72 °C

SMILES	melting point
O=C(c1cc(Br)c(O)c(Br)c1)c1c(CCc2ccccc2)oc2ccccc12	153 to 154 °C
O=C(CSCCCOc1ccccc1)NNC(=O)c1ccc(O)cc1	146 to 151 °C
CC1Cc2ccc([Si](C)(C)C)c(S(=O)(=O)NC(C)(C)C)c2S1 (stereo not drawn)	119 to 124 °C
COC(=O)Cc1c(OC)ncnc1Oc1cccc(C(C)=O)c1	65 to 67 °C
Cn1cnc(COc2nn3c(-c4ccccc4)nnc3cc2-c2ccco2)n1	257 to 259 °C
COCCCn1ccc2c1CC(c1ccccc1Cl)C1C(=O)NC(=O)C21 (stereo not drawn)	75 to 90 °C
c1cc(-c2ccc(-n3c4ccccc4c4ccccc43)cc2)cc(-n2c3ccccc3c3ccccc32)c1	244 to 246 °C
CN(C)c1cccc(C(=O)NC2CCN(C(c3ccccc3)c3ccccc3)CC2)c1[N+](=O)[O-]	176 °C
CC(C)N(CCC(CCN1CCCC1)(C(N)=O)c1ccccc1)C(C)C (stereo not drawn)	79 to 80 °C
CC(C#N)(c1ccc(Cl)cc1)c1ccc(N)cc1Cl (stereo not drawn)	135 °C
O=C(O)Cc1nc(-c2ccc(Cl)cc2)sc1Sc1ccccc1	191 to 193 °C
Clc1ccc(-c2ccc(C3=NC[C@H](c4ccccc4)O3)cc2)cc1	122 °C
CCCCc1oc2ccccc2c1/C=N/OCCCOc1ccc(C(=O)O)c(O)c1	140 to 142 °C
CC(C)(C)OC(=O)NCC(=O)NCC(=O)NCC(=O)O (Boc-Gly-Gly-Gly-OH)	115 to 120 °C
COc1cc(C(=O)O)cc2c(C)c(C)oc12	229 to 231 °C
CSC(C(=O)O)c1ccsc1 (stereo not drawn)	73.5 to 74 °C
CCCCN1Cc2c([nH]c3ccccc23)C1=O	215 to 218 °C
O=C(O)COc1nc2ccccc2s1	168 to 170 °C
COc1cc(OC)c2ccccc2c1O	87 to 88 °C
CN(C)c1ccc(C2CCCN2S(=O)(=O)c2ccc(Cl)cc2)cc1Cl (racemic)	103 °C
CC#Cc1[nH]c(=O)n2c1CN(C)Cc1cc(F)ccc1-2	219 to 220 °C
CC(C)(C)c1csc(-c2cc3cc(CCC(=O)O)ccc3o2)n1	157 to 160 °C
CCCCC1CCC2NC(=O)C(=O)C2C1 (stereo not drawn)	112 to 113 °C
CC1Nc2ccccc2NC1=S (stereo not drawn)	92 to 94 °C
O=C(CNC(=O)c1n[nH]cc1NC(=O)c1ccccn1)c1ccccc1	270 to 271 °C

Reference: a melting point compilation (Tetko et al.; mined from patent text by program, amines drawn as free bases though some values may be those of a salt)
